Tested on: NKT cell hybridomas
Assay: IL-2 production by NKT cell hybridomas cultured with BMDCs (ELISA)
Type: cell-based, mouse
Protocol: FIGS. 4A-4C illustrate that α-GalCerBf binds CD1d and activates murine NKT cells in vitro. FIG. 4A: NKT cell hybridomas (see Example 4) were stained with anti-CD3 antibodies, and empty mCD1d tetramers or CD1d tetramers were loaded with α-GalCerBf or KRN7000. Flow cytometry plots representative of three independent experiments are shown. FIG. 4B: Hybridomas were cultured with BMDCs (bone marrow-derived dendritic cells) pre-pulsed with LPS or LPS+α-GalCerBf in the presence of control Ig or anti-CD1d blocking antibodies. IL-2 secretion was measured in supernatants 16 hr later. Data are representative of three independent experiments. FIG. 4C: Liver mononuclear cells were cultured with splenocytes plus increasing amounts of α-GalCerBf in the presence or absence of anti-CD1d blocking antibodies. IFN-γ secretion was measured in supernatants on day 5. Data are representative of three independent experiments.
BMDCs and NKT hybridomas were cultured at a 3:1 hybridoma:BMDC ratio and the indicated doses of KRN7000 or α-GalCerBf in the presence of 1 μg/ml LPS. Supernatants were harvested after 24 hrs, and IL-2 production was measured by ELISA. […]
NKT hybridomas were stimulated in dose titration experiments. […] Supernatants were harvested after 24 hr, and IL-2 production was measured by ELISA. […] Supernatants were harvested after 16-18 hr and IL-2 production was measured by ELISA.

CCCCCCCCCCCCCCCCCCCCCCCCCC(=O)N[C@@H](CO[C@H]1O[C@H](CO)[C@H](O)[C@H](O)[C@H]1O)[C@H](O)[C@H](O)CCCCCCCCCCCCCC [KRN7000]
Sensitivity of hybridoma to KRN7000 relative to α-GalCerBf (IL-2) (hybridoma 1.2): 30 fold | Sensitivity of hybridoma to KRN7000 relative to α-GalCerBf (IL-2) (hybridoma 1.4): 80 fold
